These results are taken from patent US20100093865A1, “SULPHUR-LINKED COMPOUNDS FOR TREATING OPHTHALMIC DISEASES AND DISORDERS” (Acucela, Inc., priority 2008, published 2010).

The target in test [1] is T1, isomerase (Mus musculus, UniProt Q91ZQ5).
T1 construct: from tissue; host or cells: eye of living mice (CD-1; Balb/c also mentioned)
T1 sequence (Q91ZQ5 1-533): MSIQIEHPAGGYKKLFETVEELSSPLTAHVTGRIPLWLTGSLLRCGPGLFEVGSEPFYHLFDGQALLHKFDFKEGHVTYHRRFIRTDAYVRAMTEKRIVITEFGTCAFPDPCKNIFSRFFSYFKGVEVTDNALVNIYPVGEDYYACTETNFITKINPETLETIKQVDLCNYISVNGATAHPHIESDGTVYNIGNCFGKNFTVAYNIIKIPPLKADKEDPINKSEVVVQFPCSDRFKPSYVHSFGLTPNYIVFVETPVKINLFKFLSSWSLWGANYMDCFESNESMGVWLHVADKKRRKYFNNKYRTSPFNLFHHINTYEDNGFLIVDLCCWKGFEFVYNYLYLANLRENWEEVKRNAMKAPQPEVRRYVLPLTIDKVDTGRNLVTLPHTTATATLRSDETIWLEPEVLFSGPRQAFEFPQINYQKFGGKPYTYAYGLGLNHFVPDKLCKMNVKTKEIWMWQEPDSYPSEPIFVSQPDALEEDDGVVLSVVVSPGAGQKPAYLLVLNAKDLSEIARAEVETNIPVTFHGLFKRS
In words: In vivo murine isomerase assay. Conditions: oral, mice, 11-cis-retinal (oxime) recovery after photobleaching. The method, then:
The capability of sulphur-linked compounds to inhibit isomerase is determined by an in vivo murine isomerase assay. Brief exposure of the eye to intense light (“photobleaching” of the visual pigment or simply “bleaching”) is known to photo-isomerize almost all 11-cis-retinal in the retina. The recovery of 11-cis-retinal after bleaching can be used to estimate the activity of isomerase in vivo. Delayed recovery, as represented by lower 11-cis-retinal oxime levels, indicates inhibition of isomerization reaction. […] See also Deigner et al., Science, 244: 968-71 (1989); Gollapalli et al., Biochim Biophys Acta. 1651: 93-101 (2003); Parish, et al., Proc. Natl. Acad. Sci. USA, 14609-13 (1998); Radu, et al., Proc Natl Acad Sci USA 101: 5928-33 (2004).
About six-week old dark-adapted CD-1 (albino) male mice are orally gavaged with compound (0.01-25 mg/kg) dissolved in an appropriate amount of oil (about 100 μl corn oil containing 10% ethanol, at least five animals per group). Mice are gavaged with the sulphur-linked compounds described in the present disclosure. After about 2-24 hours in the dark, the mice are exposed to photobleaching of about 5,000 lux of white light for 10 minutes. The mice are allowed to recover for about 2 hours in the dark. The animals are then sacrificed by carbon dioxide inhalation. Retinoids are extracted from the eye and the regeneration of 11-cis-retinal is assessed at various time intervals.
All steps are performed in darkness with minimal redlight illumination (low light darkroom lights and red filtered flashlights for spot illumination as needed) (see, e.g., Maeda et al., J. Neurochem 85:944-956, 2003; Van Hooser et al., J Biol Chem 277:19173-82, 2002). After the mice are sacrificed, the eyes are immediately removed and placed in liquid nitrogen for storage.
The eyes are placed in about 500 μL of bis-tris propane buffer (10 mM, pH ˜7.3) and about 20 μL of 0.8M hydroxylamine (pH-7.3). The eyes are cut up into small pieces with small iris scissors and then thoroughly homogenized at 30000 rpm with a mechanical homogenizer (Polytron PT 1300 D) in the tube until no visible tissue remains. About […] of methanol and about 500 μL of heptane are added to each tube. The tubes are attached to a vortexer so that the contents are mixed thoroughly for about 15 minutes in room temperature. The organic phase is separated from the aqueous phase by centrifugation for about 10 min at 13K rpm, 4° C. 240 μL of the solution from the top layer (organic phase) is removed and transferred to clean 300 μl glass inserts in HPLC vials using glass pipette and the vials are crimped shut tightly.
The samples are analyzed on an Agilent 1100 HPLC system with normal phase column: SILICA (Beckman Coutlier, dp 5 μm, […]). The running method has a flow rate of 1.5 ml/min; solvent components are 15% solvent 1 (1% isopropanol in ethyl acetate), and 85% solvent 2 (100% hexanes). Loading volume for each sample is about 100 μl; detection wavelength is 360 nm. The area under the curve for 11-cis-retinal oxime is calculated by Agilent Chemstation software and recorded manually. Data processing is performed using Prizm software.
[…] control mice (no compound administered) are sacrificed fully dark-adapted and the eye retinoids analyzed. Light (bleached) control mice (no compound administered) are sacrificed and retinoids isolated and analyzed immediately after light treatment.
A dose response in vivo isomerase inhibition study is performed with the compounds of the present disclosure. Male or female mice (such as Balb/c mice) (at least about 8/group) are dosed orally with about 0.01 to 25 mg/kg of the compounds of HCl salts of the compounds in sterile water as solution, and photobleached about 4 hours after dosing. Recovery and retinoid analysis is performed as described above. Dark control mice are vehicle-only treated, sacrificed fully dark adapted without light treatment, and analyzed. […]

The target in test [2] is T2, recombinant human RPE65 and LRAT (visual cycle isomerase) (Homo sapiens, UniProt Q16518).
T2 construct: expressed in transfected cells; host or cells: HEK293 cell clone (homogenate); CRALBP made in E. coli TOP10
T2 sequence (Q16518 2-533 limits assumed): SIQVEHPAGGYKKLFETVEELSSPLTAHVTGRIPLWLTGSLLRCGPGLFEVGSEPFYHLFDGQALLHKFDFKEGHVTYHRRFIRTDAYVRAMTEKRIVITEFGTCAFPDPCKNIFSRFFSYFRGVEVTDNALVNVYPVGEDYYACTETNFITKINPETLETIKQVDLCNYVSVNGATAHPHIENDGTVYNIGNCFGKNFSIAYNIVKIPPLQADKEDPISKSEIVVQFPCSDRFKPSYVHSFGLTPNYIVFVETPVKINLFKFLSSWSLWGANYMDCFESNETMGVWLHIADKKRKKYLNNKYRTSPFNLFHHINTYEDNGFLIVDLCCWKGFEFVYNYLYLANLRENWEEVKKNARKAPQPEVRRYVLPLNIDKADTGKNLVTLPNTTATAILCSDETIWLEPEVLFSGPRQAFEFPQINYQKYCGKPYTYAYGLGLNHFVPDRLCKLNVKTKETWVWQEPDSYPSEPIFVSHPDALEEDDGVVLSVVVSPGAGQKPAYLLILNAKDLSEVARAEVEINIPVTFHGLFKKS
In words: Human in vitro isomerase inhibition assay. In kind it is biochemical. The method, then:
The capability of sulphur-linked compounds to inhibit the activity of a visual cycle isomerase was determined in vitro either in a human or bovine-based assay system.
Recombinant human apo cellular retinaldehyde-binding protein (CRALBP) was cloned and expressed according to standard methods in the molecular biology art (see Crabb et al., Protein Science 7:746-57 (1998); Crabb et al., J. Biol. Chem. 263:18688-92 (1988)). Briefly, total RNA was prepared from confluent ARPE19 cells (American Type Culture Collection, Manassas, Va.), cDNA was synthesized using an oligo(dT)12-18 primer, and then DNA encoding CRALBP was amplified by two sequential polymerase chain reactions (see Crabb et al., J. Biol. Chem. 263:18688-92 (1988); Intres, et al., J. Biol. Chem. 269:25411-18 (1994); GenBank Accession No. L34219.1). The PCR product was sub-cloned into pTrcHis2-TOPO TA vector according to the manufacturer's protocol (Invitrogen Inc., Carlsbad, Calif.; catalog no. K4400-01), and then the sequence was confirmed according to standard nucleotide sequencing techniques. Recombinant 6×His-tagged human CRALBP was expressed in One Shot TOP 10 chemically competent E. coli cells (Invitrogen), and the recombinant polypeptide was isolated from E. coli cell lysates by nickel affinity chromatography using nickel (Ni) Sepharose XK16-20 columns for HPLC (Amersham Bioscience, Pittsburgh, Pa.; catalog no. 17-5268-02). The purified 6×His-tagged human CRALBP was dialyzed against 10 mM bis-tris-Propane (BTP) and analyzed by SDS-PAGE. The molecular weight of the recombinant human CRALBP was approximately 39 kDal.
The concentration dependent effect of the compounds disclosed herein on the retinol isomerization reaction were evaluated with a recombinant human enzyme system. […] A homogenate of HEK293 cell clone expressing recombinant human RPE65 and LRAT were the source of the visual enzymes, and exogenous all-trans-retinol (about 20 μM) was used as the substrate. Recombinant human CRALBP (about 80 ug/mL) was added to enhance the formation of 11-cis-retinal. The 200 μL Bis-Tris Phosphate buffer (10 mM, pH 7.2) based reaction mixture also contains 0.5% BSA, and 1 mM NaPPi. In this assay, the reaction was carried out at 37° C. in duplicates for one hour and was terminated by addition of 300 μL methanol. The amount of reaction product, 11-cis-retinol, was measured by HPLC analysis following Heptane extraction of the reaction mixture. […] The ability of the compounds disclosed herein to inhibit isomerization reaction is quantified and the respective IC50 value is determined. Table 2 summarizes the IC50 values of all the compounds of the present disclosure. […] The production of 11-cis-retinol was measured at different doses of compound administration.

As to `NCCC(=O)c1cccc(S(=O)(=O)CC2CCCCC2)c1` [Example 10, 3-amino-1-(3-(cyclohexylmethylsulfonyl)phenyl)propan-1-one], the “% Inibition 1.0 mg/kg, 4 h” value in test [1] was 79.3%. `NC/C=C/c1cccc(S(=O)(=O)CC2CCCCC2)c1` [Example 14, (E)-3-(3-(cyclohexylmethylsulfonyl)phenyl)prop-2-en-1-amine]: in test [2], the “inhibition of 11-cis-retinol production” value is on record as “dose-dependent inhibition”. Regarding `CCCCSc1cccc([C@H](O)CCN)c1` [Example 18, (R)-3-amino-1-(3-(butylthio)phenyl)propan-1-ol], in test [1], the “% Inibition 1.0 mg/kg, 4 h” value stood at 68.6%.

Regarding `NCC[C@@H](O)c1cccc(SCC2CCCCC2)c1` [Example 17, (R)-3-amino-1-(3-(cyclohexylmethylthio)phenyl)propan-1-ol], the “% Inibition 1.0 mg/kg, 4 h” value in test [1] is reported as 33.4%. In test [2], the “inhibition of 11-cis-retinol production” value is “dose-dependent inhibition”.

As to `NCCCc1cccc(S(=O)(=O)CC2CCCCC2)c1` [Example 5, 3-(3-(cyclohexylmethylsulfonyl)phenyl)propan-1-amine], in test [1], the “% Inibition 0.3 mg/kg, 4 h” value is on record as 1.1% and the “% Inibition 1.0 mg/kg, 4 h” value is listed as −12.1%. In test [2], the “inhibition of 11-cis-retinol production” value was “dose-dependent inhibition”.

Take `[2H]C([2H])(Sc1cccc(C(O)CCN)c1)C1CCCCC1` (centres unmarked) [Example 49, 3-amino-1-(3-(cyclohexyldideuteromethylthio)phenyl)propan-1-ol]: the “% Inibition 1.0 mg/kg, 4 h” value in test [1] is listed as −8.5%. For the compound `NCCC(O)c1cccc(SCC2(O)CCCCC2)c1` (centres unmarked) [Example 27, 1-((3-(3-amino-1-hydroxypropyl)phenylthio)methyl)cyclohexanol], in test [1], the “% Inibition 1.0 mg/kg, 4 h” value came to 14.8%. Consider `NCCC(O)c1cccc(SCC2CCCCC2)c1` (centres unmarked) [Example 8, 3-amino-1-(3-(cyclohexylmethylthio)phenyl)propan-1-ol], for which the “% Inibition 1.0 mg/kg, 4 h” value in test [1] is reported as −14.2%. With `NC/C=C/c1cccc(SCC2CCCCC2)c1` [Example 11, (E)-3-(3-(cyclohexylmethylthio)phenyl)prop-2-en-1-amine], in test [2], the “inhibition of 11-cis-retinol production” value was “dose-dependent inhibition”. With `NCCC(O)c1cccc(S(=O)(=O)CC2CCCCC2)c1` (centres unmarked) [Example 9, 3-amino-1-(3-(cyclohexylmethylsulfonyl)phenyl)propan-1-ol], in test [1], the “% Inibition 0.3 mg/kg, 4 h” value is recorded as 3.7% and the “% Inibition 1.0 mg/kg, 4 h” value stood at 20.3%. With `[2H]C([2H])(N)CC(O)c1cccc(SCC2CCCCC2)c1` (centres unmarked) [Example 45, 3-amino-1-(3-(cyclohexylmethylthio)phenyl)-3,3-dideuteropropan-1-ol], the “% Inibition 1.0 mg/kg, 4 h” value in test [1] is 87.1%. Same read-out and setting: with `[2H]C1([2H])C([2H])([2H])C([2H])([2H])C([2H])(CSc2cccc(C(O)CCN)c2)C([2H])([2H])C1([2H])[2H]` (centres unmarked) [Example 53, 3-amino-1-(3-((perdeuterocyclohexyl)methylthio)phenyl)propan-1-ol] the figure was −4.9%; with `[2H]C([2H])(C1CCCCC1)S(=O)(=O)c1cccc(C(O)CCN)c1` (centres unmarked) [Example 50, 3-amino-1-(3-(cyclohexyldideuteromethylsulfonyl)phenyl)propan-1-ol], −1.6%.
